In this assay the test system is Mycobacterium tuberculosis. Kind of assay: Antibacterial activity against multidrug resistant Mycobacterium tuberculosis. Format: functional.

Converted amounts (≈) assume the structure as drawn.

In turn, `CCCCCCCCCCS(=O)(=O)CC(N)=O` yielded an MIC of 0.75 to 1.5 µg/mL (≈ 2.85 to 5.69 µM).

As usually defined, the MIC is the lowest concentration that inhibits growth of the organism.
